One data set has as its system Escherichia coli. Nature of the data set: Antibacterial activity against Escherichia coli incubated for 24 to 48 hrs. The format is functional. The settings on record: time 24-48 hrs.
Data set [1] in a line: Inhibition of urease (unknown origin) incubated for 30 mins by microplate reader based analysis.
For another data set, the system named is Proteus vulgaris. The experiment in a line: Antibacterial activity against Proteus vulgaris ATCC 13315 incubated for 18 to 24 hrs by broth microdilution assay. In kind it is functional. The settings on record: time 18-24 hrs. In general terms: In broth dilution the organism is exposed to a series of concentrations in liquid medium.
Data set [2] relates to Klebsiella pneumoniae. Nature of the data set: Antibacterial activity against Klebsiella pneumoniae ATCC 700603 incubated for 18 to 24 hrs by broth microdilution assay. The format is functional. Particulars: time 18-24 hrs; call rule not given here.
The test system of data set [3] is Klebsiella pneumoniae. The experiment in a line: Antibacterial activity against clinical isolate Klebsiella pneumoniae incubated for 18 to 24 hrs by broth microdilution assay. In kind it is functional. Particulars: time 18-24 hrs.
Data set [4] is described as follows: Inhibition of urease (unknown origin) assessed as reduction on ammonia production incubated for 15 mins by indophenol reagent based microplate reader assay.
The subject of a further data set is Proteus mirabilis. Nature of the data set: Antibacterial activity against clinical isolate Proteus mirabilis incubated for 18 to 24 hrs by broth microdilution assay. The format is functional. Particulars: time 18-24 hrs.
The nature of data set [5]: Drug uptake in Swiss albino muscle infected mouse kidney measured upto 180 mins. The format is ADME, tissue-based. Particulars: in vivo, 3 h.
The nature of data set [6]: Biodistribution in Swiss albino muscle infected mouse assessed as ratio of infected muscle to normal muscle measured at all time intervals. In kind it is ADME, organism-based, Muscle tissue. The settings on record: in vivo.
Data set [7] can be described thus: Biodistribution in Swiss albino muscle infected mouse assessed as ratio of infected muscle to normal muscle measured after 30 mins post injection. In kind it is ADME, organism-based, Muscle tissue. Particulars: in vivo, 0.5 h.

The record followed here is ChEMBL document CHEMBL5223068, “Novel thiobarbiturates as potent urease inhibitors with potential antibacterial activity: Design, synthesis, radiolabeling and biodistribution study” (Bioorg Med Chem, 2020).

In brackets after ≈: the same amount, converted by molar mass. Bounds are passed on as bounds.

With `O=C1C(C(=O)C(F)(F)F)C(=O)N(c2ccc(-c3ncc(-c4ccccc4)[nH]3)cc2)C(=S)N1c1ccc(Cl)cc1` (stereo unspecified), the MIC against Escherichia coli was at most 6.25 µg/mL.

On to `NC(=O)NNC(=O)CC1C(=O)NC(=S)NC1=O`, for which the IC50 in data set [1] was 27.1 µM. Further, the MIC against Proteus vulgaris stood at 16 µg/mL (≈ 61.7 µM); with Klebsiella pneumoniae [2] it was 31.2 µg/mL (≈ 121 µM); against Klebsiella pneumoniae [3] it was 62.5 µg/mL (≈ 241 µM).

On to `O=C(CC1C(=O)NC(=S)NC1=O)Nc1ccc(F)cc1`, for which the IC50 in [1] is 44.3 µM.

Turning to `CCN1C(=O)C(C(c2ccccc2)C2C(=O)N(CC)C(=S)N(CC)C2=O)C(=O)N(CC)C1=S`, the concentration for half-maximal inhibition (IC50) in data set [4] amounted to 7.45 µM.

`Cc1ccc(NC(=O)CC2C(=O)NC(=S)NC2=O)c(C)c1`: the IC50 in data set [1] turned out to be 75.4 µM.

For `Cc1ccccc1NC(=O)CC1C(=O)NC(=S)NC1=O`, 52.1 µM corresponded to half-maximal inhibition in data set [1] (IC50).

With `CC(C)CNC(=O)CC1C(=O)NC(=S)NC1=O`, the midpoint of inhibition in data set [1], the IC50, lay at 16.9 µM.

The molecule `CCCNC(=O)CC1C(=O)NC(=S)NC1=O` registered an IC50 in [1] of 11 µM.

With `O=C(CC1C(=O)NC(=S)NC1=O)N/N=C/c1ccccc1`, the midpoint of inhibition in data set [1], the IC50, lay at 54.4 µM.

For `Cc1ccc(/C=N/NC(=O)CC2C(=O)NC(=S)NC2=O)cc1`, the IC50 in data set [1] was found to be 67.7 µM.

The molecule `CCOC(=O)/C(=C\N(C)C)C1C(=O)NC(=S)NC1=O` gave an IC50 in [1] of 13.6 µM. For the same molecule, the minimum inhibitory concentration (MIC) in the data set with Proteus mirabilis turned out to be 15 µg/mL (≈ 52.6 µM); with Klebsiella pneumoniae [2] it was 31.2 µg/mL (≈ 110 µM); against Klebsiella pneumoniae [3] it was 62.5 µg/mL (≈ 219 µM).

On to `O=C(CC1C(=O)NC(=S)NC1=O)NCCNC(=O)CC1C(=O)NC(=S)NC1=O`, for which half-maximal inhibition in data set [1] (IC50) required 29.8 µM. This molecule also registered an MIC in the data set with Klebsiella pneumoniae [3] of 62.5 µg/mL (≈ 146 µM).

With `O=C1NC(=S)NC(=O)C1CC(=O)N1CCOCC1`, in data set [1], the IC50 came out at 8.21 µM. Further, the MIC with Proteus vulgaris, against Proteus mirabilis, in the data set with Klebsiella pneumoniae [2] and against Klebsiella pneumoniae [3] was 62.5 µg/mL (≈ 230 µM) each time. Further, the Drug uptake result in data set [5] was “Active”. In addition, the Ratio in data set [6] is over 1; in [7], 3.72.

On to `Cc1cccc(NC(=O)CC2C(=O)NC(=S)NC2=O)c1`, for which, in [1], half-maximal inhibition (IC50) required 76.5 µM.

Molecule `O=C(CC1C(=O)NC(=S)NC1=O)OCc1ccccc1` had an IC50 in [1] of 74.7 µM. The same molecule registered an MIC in the data set with Klebsiella pneumoniae [2] of 125 µg/mL (≈ 428 µM).

In [1], `CCOC(=O)CC1C(=O)NC(=S)NC1=O` had an IC50 of 10.1 µM. Moreover, the MIC in the data set on Proteus vulgaris came to 31.2 µg/mL (≈ 136 µM); against Klebsiella pneumoniae [2] it was 62.5 µg/mL (≈ 271 µM); against Klebsiella pneumoniae [3], 31.2 µg/mL (≈ 136 µM).

Consider `O=C(CC1C(=O)NC(=S)NC1=O)N/N=C/c1ccccc1O`, for which, in data set [1], the IC50 was determined as 92.9 µM.

The molecule `COC(=O)c1ccc(NC(=O)CC2C(=O)NC(=S)NC2=O)cc1` had an IC50 in data set [1] of 22.9 µM.

With `Cc1cccc(NC(=O)CC2C(=O)NC(=S)NC2=O)c1C`, in data set [1], it took 71 µM to reach half-maximal inhibition (IC50).

As for `O=C(CC1C(=O)NC(=S)NC1=O)Nc1ccccc1`, in data set [1], the IC50 worked out at 20.8 µM.

In [1], `NNC(=O)CC1C(=O)NC(=S)NC1=O` returned an IC50 of 60.3 µM. For the same molecule, the minimal inhibitory concentration (MIC) in the data set on Klebsiella pneumoniae [2] is 125 µg/mL (≈ 578 µM).

For `CC1=C(C(=O)O)N2C(=O)[C@@H](NC(=O)[C@H](N)c3ccccc3)[C@H]2SC1` [CEPHALEXIN ANHYDROUS], the minimum inhibitory concentration (MIC) against Proteus vulgaris is 125 µg/mL (≈ 360 µM); with Proteus mirabilis, 125 µg/mL (≈ 360 µM); against Klebsiella pneumoniae [2], 125 µg/mL (≈ 360 µM); with Klebsiella pneumoniae [3], over 250 µg/mL.

For the molecule `NC(N)=S` [THIOUREA], the IC50 was 20 µM in [1] and at most 21.1 µM in data set [4].

One may read the MIC as the lowest concentration found to suppress growth. By IC50 is commonly meant the concentration needed to halve the response being measured.
